Values quoted from earlier work in US20250231185A1, “Coronavirus T Cell Epitopes, Megapools and Uses Thereof” (La Jolla Institute for Immunology, priority 2021, published 2025).

Tested on: CD8+ T cells
Settings: SARS-CoV-2 Ag S; T cell type recognizing the epitope; cited from earlier work

Substance | Restriction
1299 (DSKVGGNYNY) [compound 1299] | CD8
1300 (KVGGNYNYLY) [compound 1300] | CD8
1301 (VGGNYNYLY) [compound 1301] | CD8
1302 (GNYNYLYRLF) [compound 1302] | CD8
1305 (YNYLYRLFR) [compound 1305] | CD8
1306 (RLFRKSNLK) [compound 1306] | CD8
1307 (KSNLKPFER) [compound 1307] | CD8
1308 (KPFERDISTEI) [compound 1308] | CD8
1310 (FERDISTEIY) [compound 1310] | CD8
1311 (FERDISTEI) [compound 1311] | CD8
1312 (NGVEGFNCY) [compound 1312] | CD8
1318 (YQPYRVVVL) [compound 1318] | CD8
1320 (QPYRVVVLSF) [compound 1320] | CD8
1322 (FELLHAPATV) [compound 1322] | CD8
1323 (ELLHAPATV) [compound 1323] | CD8
1325 (LVKNKCVNF) [compound 1325] | CD8
1326 (VLTESNKKF) [compound 1326] | CD8
1328 (KFLPFQQFGR) [compound 1328] | CD8
1329 (DAVRDPQTL) [compound 1329] | CD8
1331 (TPCSFGGVSV) [compound 1331] | CD8
1332 (NTSNQVAVLY) [compound 1332] | CD8
1333 (TSNQVAVLY) [compound 1333] | CD8
1334 (YQDVNCTEV) [compound 1334] | CD8
1336 (IHADQLTPTW) [compound 1336] | CD8
1337 (QLTPTWRVY) [compound 1337] | CD8
1338 (RVYSTGSNV) [compound 1338] | CD8

Substance | Restriction
1339 (RVYSTGSNVF) [compound 1339] | CD8
1341 (STGSNVFQTR) [compound 1341] | CD8
1343 (AEHVNNSY) [compound 1343] | CD8
1344 (YECDIPIGAGI) [compound 1344] | CD8
1346 (QTNSPRRAR) [compound 1346] | CD8
1348 (SPRRARSV) [compound 1348] | CD8
1349 (RSVASQSII) [compound 1349] | CD8
1354 (LGAENSVAY) [compound 1354] | CD8
1356 (AYSNNSIAI) [compound 1356] | CD8
1357 (NSIAIPTNF) [compound 1357] | CD8
1358 (IAIPTNFTI) [compound 1358] | CD8
1359 (IPTNFTISV) [compound 1359] | CD8
1364 (KTSVDCTMYI) [compound 1364] | CD8
1368 (GSFCTQLNR) [compound 1368] | CD8
1369 (TQLNRALTGI) [compound 1369] | CD8
1370 (QEVFAQVKQIY) [compound 1370] | CD8
1372 (EVFAQVKQI) [compound 1372] | CD8
1373 (EVFAQVKQIY) [compound 1373] | CD8
1374 (VFAQVKQIY) [compound 1374] | CD8
1376 (IYKTPPIKDF) [compound 1376] | CD8
1377 (ILPDPSKPSK) [compound 1377] | CD8
1378 (SFIEDLLF) [compound 1378] | CD8
1380 (TLADAGFIK) [compound 1380] | CD8
1381 (LADAGFIKQY) [compound 1381] | CD8
1382 (ADAGFIKQY) [compound 1382] | CD8
1383 (GLTVLPPLL) [compound 1383] | CD8

Substance | Restriction
1384 (LPPLLTDEM) [compound 1384] | CD8
1385 (LLTDEMIAQY) [compound 1385] | CD8
1387 (LTDEMIAQYT) [compound 1387] | CD8
1388 (TDEMIAQY) [compound 1388] | CD8
1391 (WTFGAGAAL) [compound 1391] | CD8
1393 (QIPFAMQMAY) [compound 1393] | CD8
1394 (IPFAMQMAY) [compound 1394] | CD8
1395 (FAMQMAYRF) [compound 1395] | CD8
1397 (YENQKLIANQF) [compound 1397] | CD8
1399 (IANQFNSAI) [compound 1399] | CD8
1400 (LSSTASALGK) [compound 1400] | CD8
1402 (ALNTLVKQL) [compound 1402] | CD8
1403 (SVLNDILSR) [compound 1403] | CD8
1404 (SVLNDILSRL) [compound 1404] | CD8
1406 (RLDKVEAEVQI) [compound 1406] | CD8
1409 (AEVQIDRL) [compound 1409] | CD8
1410 (AEVQIDRLI) [compound 1410] | CD8
1412 (ITGRLQSLQTY) [compound 1412] | CD8
1413 (LITGRLQSL) [compound 1413] | CD8
1414 (RLQSLQTY) [compound 1414] | CD8
1417 (AEIRASANL) [compound 1417] | CD8
1418 (RASANLAATK) [compound 1418] | CD8
1419 (SKRVDFCGKGY) [compound 1419] | CD8
1420 (RVDFCGKGY) [compound 1420] | CD8
1424 (FPQSAPHGV) [compound 1424] | CD8

Same assay, conditions: T cell type (CD4 or CD8) recognizing the SARS-CoV-2 epitope; cited from earlier work

Substance | Restriction
1015 (SRYWEPEF) [compound 1015] | CD8
1016 (WEPEFYEAM) [compound 1016] | CD8
1017 (AMYTPHTVL) [compound 1017] | CD8
1018 (TPHTVLQAV) [compound 1018] | CD8
1021 (QLYLGGMSYY) [compound 1021] | CD8
1022 (KPPISFPL) [compound 1022] | CD8
1028 (YRGTTTYKL) [compound 1028] | CD8
1030 (APTLVPQEHYV) [compound 1030] | CD8
1032 (VPQEHYVRI) [compound 1032] | CD8
1034 (YQKVGMQKY) [compound 1034] | CD8
1035 (FAIGLALYY) [compound 1035] | CD8
1036 (YYPSARIVY) [compound 1036] | CD8
1037 (IPARARVEC) [compound 1037] | CD8
1038 (IPARARVECF) [compound 1038] | CD8
1039 (YVFCTVNAL) [compound 1039] | CD8
1040 (VVNARLRAK) [compound 1040] | CD8
1043 (RPQIGVVREF) [compound 1043] | CD8
1044 (AVASKILGL) [compound 1044] | CD8
1045 (ILGLPTQTV) [compound 1045] | CD8
1048 (EEAIRHVRAW) [compound 1048] | CD8
1049 (LQLGFSTGV) [compound 1049] | CD8
1050 (MYKGLPWNV) [compound 1050] | CD8
1051 (KNLSDRVVFV) [compound 1051] | CD8
1054 (PFMIDVQQW) [compound 1054] | CD8
1058 (LLADKFPVL) [compound 1058] | CD8
1059 (YKIEELFYSY) [compound 1059] | CD8

Substance | Restriction
1060 (KIEELFYSY) [compound 1060] | CD8
1062 (FTDGVCLFW) [compound 1062] | CD8
1063 (SLYVNKHAF) [compound 1063] | CD8
1066 (AGFSLWVYK) [compound 1066] | CD8
1068 (YNLWNTFTRL) [compound 1068] | CD8
1070 (NTFTRLQSL) [compound 1070] | CD8
1071 (SLENVAFNV) [compound 1071] | CD8
1073 (TTLPVNVAF) [compound 1073] | CD8
1074 (TICAPLTVF) [compound 1074] | CD8
1075 (GRVDGQVDL) [compound 1075] | CD8
1076 (KVDGVVQQL) [compound 1076] | CD8
1077 (VVQQLPETY) [compound 1077] | CD8
1078 (KPRSQMEIDF) [compound 1078] | CD8
1079 (FIERYKLEGY) [compound 1079] | CD8
1080 (FIPMDSTVKNY) [compound 1080] | CD8
1081 (LLLDDFVEI) [compound 1081] | CD8
1083 (SVVSKVVKV) [compound 1083] | CD8
1086 (VAMPNLYKM) [compound 1086] | CD8
1088 (LPKGIMMNV) [compound 1088] | CD8
1092 (CATVHTANKW) [compound 1092] | CD8
1093 (KLMGHFAWW) [compound 1093] | CD8
1094 (SSEAFLIGCNY) [compound 1094] | CD8
1096 (YVMHANYIF) [compound 1096] | CD8
1097 (FWRNTNPIQL) [compound 1097] | CD8
1098 (WRNTNPIQL) [compound 1098] | CD8
1099 (NPIQLSSYSL) [compound 1099] | CD8
